The source of these data is patent US9034826B2, “Use of epidermal growth factor for the morphofunctional restoration of peripheral nerves in diabetic neuropathy” (Centro de Ingenieria Genetica y Biotecnologia, priority 2006, dated 2015).

The subject of assay [1] is Lipoprotein Lipase (LPL). Put plainly: Lipoprotein lipase (LPL) enzymatic activity in sciatic nerve fragments, reversion study (Example 2). Format: in vivo, Wistar rats. The conditions noted are these: established diabetic neuropathy, 100 μg EGF in 1 ml i.p. 3 days a week for one month. The procedure:
(§1) Fragments of the nerve from each animal were incubated together with 3 μg/ml heparin in Krebs-Ringer buffer at 37° C. for 50 minutes. Aliquots from these samples were then incubated in the presence of [^14C] triolein-phosphatidylcholine. ^14C labeled fatty acids were quantified by the classic methods. LPL activity was expressed in nanomoles of released fatty acids (RFA) per minute and gram of tissue.
The aim of this study was to evaluate the neurorestoration effect of the pharmaceutical composition. Male Wistar rats between 200-250 grams of body is weight received a subcutaneous injection of streptozotocin at 75 mg/kg in sodium citrate buffer, and were allowed to evolve until 120 days after disease induction. All rats used in this experiment had shown sustained glucose levels above 15 mmol/L. Animals were handled and fed as previously described. A concurrent control group was set, where animals received saline instead of streptozotocin. […] After this period an electrophysiological characterization of all rats were done and animals were split in two random treatment groups:
Group II. Animals received the pharmaceutical composition with 100 μg of EGF in 1 ml, 3 days a week, by intraperitoneal route.
The aim of this study was to compare the LPL enzymatic activity after one month of treatment with EGF containing composition, as compared to saline treated diabetic animals. […]

Another assay relates to sciatic nerve. Put plainly: Histomorphometric study on fragments of the sciatic nerve, prevention study (Example 1). Format: in vivo, Wistar rats. The conditions noted are these: day 70 after induction of diabetes; for Number of blood vessels: 10 microscopic fields. The procedure:
(§2) Male Wistar, with 200-250 grams of body weight, received a subcutaneous injection of streptozotocin, at 75 mg/kg in sodium citrate buffer. Water was then replaced by a 10% sucrose solution during the next 24 h, to prevent deaths caused by hypoglycemia. Glucose levels in blood were monitored every morning during the next 72 hours after the injection. Only animals with sustained glucose values above 15 mmol/L were used. Rats were housing at 4 per cage and fed in the conventional way. A concurrent group of other 80 rats received citrate buffer without streptozotocin and was handled in a similar fashion to the diabetic group. The average value for glycemia during the 72 hours in this group was 5.87 mmol/L.
(§3) All treatments were conducted during 8 weeks, starting one week after streptozotocin injection. The composition used contained 75 μg of human recombinant EGF/ml. Several types of observations were conducted in the animals under study:
Once the treatment was concluded, animals were sacrificed at day 70 after induction of diabetes, 10 days after the last dose was given, and the analysis described above is was completed. Animals were sacrificed by an overdose of anesthesia and perfused with saline buffer pH 7.4. A total of ten animals per experimental group were included for histomorphometric studies, and an equivalent number of rats were used for biochemical determinations. In both systems the sciatic nerves from both limbs were dissected; fragments were kept at −70° C. until processed. The samples taken for histological and/or histomorphometric studies were stained with hematoxilin/eosin and toluidine blue. At least five fragments of the same nerve were quantitatively studied using MADIP program. The fragments were included in blocks of celloidine and gelatin, and those blocks were horizontal and transversally sliced. The following histological indicators were evaluated: • Total number of blood vessels (in epineural/perineural) in 10 microscopic fields using 10× as constant magnification in longitudinal cuts of the nerve. • Percentage of demyelinated fibers. Evaluated by averaging the values per microscopic field (×20, at least five fields). • Percentage of myelin or non-myelin fibers with lesions (dilated or distorted) per microscopic field (×20, at least five fields). • Percentage of endoneurial collagenization (moderated: 25 to 50%; severe: more than 50% of the endoneurial area in transversal slices, and at least three different sections.

For a further assay, the system named is diabetic animals. In words: Findings in diabetic animals after injection or infiltration of the composition (summary). Format: in vivo. The following applies: after three systemic injections or local infiltrations at the periphery of the nerve trunks.
The subject of assay [2] is Lipoprotein Lipase (LPL). Put plainly: Lipoprotein lipase (LPL) enzymatic activity in sciatic nerve fragments, prevention study (Example 1). Format: in vivo, Wistar rats. The procedure: as §2, §3, §1
[3] abbreviates: Treatment group 1 (once weekly i.p., 8 weeks).
The mark [4] stands for this setting: Treatment group 3 (three times a week i.p., 8 weeks).

With “EGF containing pharmaceutical composition: Composition with human recombinant EGF: 75 μg/ml in Example 1, 100 μg in 1 ml in Example 2, given intraperitoneally”, the “LPL activity in the sciatic nerve” value with Lipoprotein Lipase (LPL) [1] was determined as 6.29 ± 1.67 nmoles AGL/min/g. In addition, in the assay with sciatic nerve (setting [3]), the “Number of blood vessels” value stood at 111.33 ± 14.5, the “% of collagenized area” value was 42.69 ± 14.71%, the “% of demyelinated fibers” value is on record as 51.2 ± 17.94% and the “% of fibers with lesions” value is given as 60.12 ± 11%. Moreover, in the assay on sciatic nerve (setting [4]), the “Number of blood vessels” value was determined as 158.6 ± 26.12, the “% of collagenized area” value turned out to be 13.45 ± 11.82%, the “% of demyelinated fibers” value is on record as 35.56 ± 12.18% and the “% of fibers with lesions” value is 41.38 ± 10.26%. In the assay on diabetic animals, the Axon edema result is “Reductions in axon edema”, the Axonal neurofilaments entry was “Preservation of axonal neurofilaments”, the “Conduction velocity of motor fibers” value is given as “Normalization of conduction velocity of motor fibers” and the Endoneurial collagenization result was “Diminution of endoneurial collagenization”. Besides, in the assay on diabetic animals, the “Integrity of the myelin sheath of the sciatic nerve” value is “Improvement in the integrity of the myelin sheath of the sciatic nerve” and the Vasa nervorum result is “Integrity of the vasa nervorum”. For the same substance, the “LPL activity in the sciatic nerve” value in the assay with Lipoprotein Lipase (LPL) [2] (setting [3]) came to 3.75 ± 2.2 nmoles RFA/min/g. Also, the “LPL activity in the sciatic nerve” value in the assay with Lipoprotein Lipase (LPL) [2] (setting [4]) is 5.41 ± 1.83 nmoles RFA/min/g.
